Experiment in all cases: PDE Activity Assay
For test [1], the target named is cAMP-specific 3',5'-cyclic phosphodiesterase 4A (Homo sapiens, UniProt P27815). The settings on record: pH 8; 22 °C.
Test [2] deals with cAMP-specific 3',5'-cyclic phosphodiesterase 4B (Homo sapiens, UniProt Q07343).
Test [3] has as its target cAMP-specific 3',5'-cyclic phosphodiesterase 4D (Homo sapiens, UniProt Q08499).

Where “and” joins values, the source holds several entries; their conditions need not be identical. Equal values may be shown once. Where a name gives a salt, the structure may show the parent alone.

cAMP-specific 3',5'-cyclic phosphodiesterase 4D, sequence (Q08499 whole entry): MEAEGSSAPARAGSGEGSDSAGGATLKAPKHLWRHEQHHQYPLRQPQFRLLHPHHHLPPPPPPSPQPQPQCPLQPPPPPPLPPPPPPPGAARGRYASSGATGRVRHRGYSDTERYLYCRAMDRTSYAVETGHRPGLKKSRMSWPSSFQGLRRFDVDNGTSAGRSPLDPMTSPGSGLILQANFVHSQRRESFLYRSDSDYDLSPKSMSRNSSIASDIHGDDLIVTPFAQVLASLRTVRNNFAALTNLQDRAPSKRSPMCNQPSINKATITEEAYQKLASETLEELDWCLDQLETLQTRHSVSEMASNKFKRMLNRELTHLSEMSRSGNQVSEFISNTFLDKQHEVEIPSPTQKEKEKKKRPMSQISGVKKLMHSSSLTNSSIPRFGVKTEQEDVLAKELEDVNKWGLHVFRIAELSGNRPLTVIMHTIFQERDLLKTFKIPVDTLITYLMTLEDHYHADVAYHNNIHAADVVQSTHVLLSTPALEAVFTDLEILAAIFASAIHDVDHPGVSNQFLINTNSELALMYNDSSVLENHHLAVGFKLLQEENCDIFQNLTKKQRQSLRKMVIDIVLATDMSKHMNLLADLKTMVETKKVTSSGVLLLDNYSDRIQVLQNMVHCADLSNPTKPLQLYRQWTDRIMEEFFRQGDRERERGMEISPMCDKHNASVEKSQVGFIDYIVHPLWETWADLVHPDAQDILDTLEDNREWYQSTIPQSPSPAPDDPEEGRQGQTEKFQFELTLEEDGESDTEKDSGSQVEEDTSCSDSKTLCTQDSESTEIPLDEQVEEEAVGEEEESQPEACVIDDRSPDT
cAMP-specific 3',5'-cyclic phosphodiesterase 4B, sequence (Q07343 whole entry): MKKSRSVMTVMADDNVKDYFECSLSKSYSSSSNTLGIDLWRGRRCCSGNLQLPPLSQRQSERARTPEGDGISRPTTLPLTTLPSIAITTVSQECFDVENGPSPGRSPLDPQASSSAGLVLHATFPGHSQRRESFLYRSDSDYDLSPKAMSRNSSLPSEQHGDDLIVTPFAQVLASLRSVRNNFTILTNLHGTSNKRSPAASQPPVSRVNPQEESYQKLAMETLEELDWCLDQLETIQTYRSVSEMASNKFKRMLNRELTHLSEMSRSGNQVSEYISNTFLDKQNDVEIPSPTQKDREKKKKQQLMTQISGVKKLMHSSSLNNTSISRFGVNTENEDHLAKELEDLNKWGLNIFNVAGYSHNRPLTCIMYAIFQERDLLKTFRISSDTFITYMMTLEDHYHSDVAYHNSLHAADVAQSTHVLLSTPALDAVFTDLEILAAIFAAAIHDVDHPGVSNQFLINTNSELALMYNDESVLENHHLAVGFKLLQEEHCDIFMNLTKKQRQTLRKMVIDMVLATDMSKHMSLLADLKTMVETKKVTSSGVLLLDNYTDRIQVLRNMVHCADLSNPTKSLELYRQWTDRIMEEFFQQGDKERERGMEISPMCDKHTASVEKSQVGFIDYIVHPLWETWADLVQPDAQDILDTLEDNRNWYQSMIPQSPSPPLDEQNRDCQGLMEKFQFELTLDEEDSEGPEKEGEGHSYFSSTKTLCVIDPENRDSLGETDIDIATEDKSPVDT
cAMP-specific 3',5'-cyclic phosphodiesterase 4A, sequence (P27815 whole entry): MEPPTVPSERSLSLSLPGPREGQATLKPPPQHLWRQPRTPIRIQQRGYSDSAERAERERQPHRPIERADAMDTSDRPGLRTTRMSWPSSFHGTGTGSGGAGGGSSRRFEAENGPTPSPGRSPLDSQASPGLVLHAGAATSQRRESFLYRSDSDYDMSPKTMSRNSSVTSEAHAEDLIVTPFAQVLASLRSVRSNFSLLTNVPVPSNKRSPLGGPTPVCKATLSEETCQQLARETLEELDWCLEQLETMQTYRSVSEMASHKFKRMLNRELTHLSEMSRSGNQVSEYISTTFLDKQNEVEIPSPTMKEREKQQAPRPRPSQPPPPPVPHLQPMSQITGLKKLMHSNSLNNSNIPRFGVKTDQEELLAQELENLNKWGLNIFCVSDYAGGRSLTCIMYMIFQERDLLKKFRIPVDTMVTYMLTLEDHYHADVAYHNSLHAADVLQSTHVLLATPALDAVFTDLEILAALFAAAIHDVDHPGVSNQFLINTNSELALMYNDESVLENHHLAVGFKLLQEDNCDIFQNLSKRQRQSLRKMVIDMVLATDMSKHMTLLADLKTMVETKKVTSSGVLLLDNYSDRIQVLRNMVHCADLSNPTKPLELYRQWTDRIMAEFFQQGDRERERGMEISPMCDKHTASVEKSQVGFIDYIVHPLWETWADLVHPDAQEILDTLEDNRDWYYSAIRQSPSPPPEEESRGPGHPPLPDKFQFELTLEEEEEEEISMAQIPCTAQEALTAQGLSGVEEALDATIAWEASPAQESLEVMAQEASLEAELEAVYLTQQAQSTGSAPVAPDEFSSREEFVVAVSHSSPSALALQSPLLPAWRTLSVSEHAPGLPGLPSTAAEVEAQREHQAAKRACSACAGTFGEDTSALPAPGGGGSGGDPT

On to `COc1ccccc1COC(C)(C)c1nc2c(N)ncn(Cc3ccc(OC)c(OC4CCCC4)c3)c-2n1` [3-(3-Cyclopentyloxy-4-methoxy-benzyl)-8-[1-(2-methoxy-benzyloxy)-1-methyl-ethyl]-3H-purine-6-ylamine], for which the Ki (commonly a dissociation constant, usually derived from enzyme kinetics or from competition with a known ligand) in test [1] stood at 137 nM; in test [2] it was 11 nM.

Regarding `COc1ccc(Cn2cnc(N)c3nc(C(C)(C)OCc4ccc(F)c(F)c4)nc2-3)cc1OC1CCCC1` [3-(3-Cyclopentyloxy-4-methoxy-benzyl)-8-[1-(3,4-difluoro-benzyloxy)-1-methyl-ethyl]-3Hpurin-6-ylamine Fumarate], the results for the Ki in test [1] and in test [2] were 244 nM and 17.3 nM, respectively.

Regarding `COc1ccc(COC(C)(C)c2nc3c(N)ncn(Cc4ccc(OC)c(OC5CCCC5)c4)c-3n2)cc1OC` [3-(3-Cyclopentyloxy-4-methoxy-benzyl)-8-[1-(3,4-dimethoxy-benzyloxy)-1-methyl-ethyl]-3Hpurin-6-ylamine Fumarate], the values for the Ki in test [1] and in test [2] were 405 nM and 42.8 nM, respectively.

Consider `COc1ccc(Cn2cnc(N)c3nc(C(C)(C)OCc4ccc5c(c4)OCO5)nc2-3)cc1OC1CCCC1` [3-(3-Cyclopentyloxy-4-methoxy-benzyl)-8-[1-(3,4-methylenedioxy-benzyloxy)-1-methyl-ethyl]-3Hpurin-6-ylamine], for which the Ki came out at 147 nM in test [1] and 21.4 nM in test [2].

As for `COc1ccc(Cn2cnc(N)c3nc(C(C)(C)OCc4cccc(F)c4)nc2-3)cc1OC1CCCC1` [3-(3-Cyclopentyloxy-4-methoxy-benzyl)-8-[1-(3-fluoro-benzyloxy)-1-methyl-ethyl]-3H-purin-6-ylamine], the Ki in test [1] came out at 208 nM; in test [2] it was 11.6 nM.

`COc1ccc(Cn2cnc(N)c3nc(C(C)(C)OCc4ccc(C#N)cc4)nc2-3)cc1OC1CCCC1` [3-(3-Cyclopentyloxy-4-methoxy-benzyl)-8-[1-(4-cyano-benzyloxy)-1-methyl-ethyl]-3Hpurin-6-ylamine]: the values for the Ki in test [1] and in test [2] were 1190 nM and 71.3 nM, respectively.

Consider `COc1ccc(COC(C)c2nc3c(N)ncn(Cc4ccc(OC)c(OC5CCCC5)c4)c-3n2)cc1` (stereo not given) [3-(3-Cyclopentyloxy-4-methoxy-benzyl)-8-[1-(4-methoxy-benzyloxy)-ethyl]-3H-purin-6-ylamine], for which the values for the Ki in test [1] and in test [2] were 5200 nM and 430 nM, respectively.

As for `COc1ccc(Cn2cnc(N)c3nc(C(C)(C)OCc4ccc(C)cc4)nc2-3)cc1OC1CCCC1` [3-(3-Cyclopentyloxy-4-methoxy-benzyl)-8-[1-(4-methyl-benzyloxy)-1-methyl-ethyl]-3H-purin-6-ylamine], the Ki came to 206 nM in test [1] and 9.8 nM in test [2].

On to `COc1ccc(Cn2cnc(N)c3nc(C(C)(C)OCc4ccc(C(C)(C)C)cc4)nc2-3)cc1OC1CCCC1` [3-(3-Cyclopentyloxy-4-methoxy-benzyl)-8-[1-(4-tert-butyl-benzyloxy)-1-methyl-ethyl]-3Hpurin-6-ylamine], for which the Ki in test [1] is 175 nM; in test [2] it was 5.8 nM.

`COc1ccc(Cn2cnc(N)c3nc(C(C)(C)OCc4ccc(OC(F)(F)F)cc4)nc2-3)cc1OC1CCCC1` [3-{[3-(cyclopentyloxy)-4-methoxyphenyl]methyl}-8-(2-{[4-(trifluoromethoxy)phenyl]methoxy}propan-2-yl)-3H-purin-6-amine]: the Ki in test [1] worked out at 415 nM; in test [2], 26.6 nM.

For `COc1ccc(Cn2cnc(N)c3nc(C(C)(C)OCc4ccc(C(F)(F)F)cc4)nc2-3)cc1OC1CCCC1` [3-{[3-(cyclopentyloxy)-4-methoxyphenyl]methyl}-8-(2-{[4-(trifluoromethyl)phenyl]methoxy}propan-2-yl)-3H-purin-6-amine], the Ki in test [1] was 309 nM; in test [2], 33 nM.

For `COc1ccc(Cn2cnc(N)c3nc(C(C)(C)COc4cccs4)nc2-3)cc1OC1CCCC1` [3-{[3-(cyclopentyloxy)-4-methoxyphenyl]methyl}-8-[2-methyl-1-(thiophen-2-yloxy)propan-2-yl]-3H-purin-6-amine], the results for the Ki in test [1] and in test [2] were 236 nM and 46.9 nM, respectively.

`COc1ccc(Cn2cnc(N)c3nc(C(C)(C)COc4ccsc4)nc2-3)cc1OC1CCCC1` [3-{[3-(cyclopentyloxy)-4-methoxyphenyl]methyl}-8-[2-methyl-1-(thiophen-3-yloxy)propan-2-yl]-3H-purin-6-amine]: the Ki in test [1] is 223 nM; in test [2] it was 9.5 nM.

Regarding `COc1ccc(Cn2cnc(N)c3nc(C(C)OCc4ccc(F)cc4)nc2-3)cc1OC1CCCC1` (stereo not given) [3-{[3-(cyclopentyloxy)-4-methoxyphenyl]methyl}-8-{1-[(4-fluorophenyl)methoxy]ethyl}-3H-purin-6-amine], the Ki in test [1] came to 3390 nM; in test [2], 269 nM.

On to `COc1ccc(Cn2cnc(N)c3nc(C(C)(C)OCc4ccccc4F)nc2-3)cc1OC1CCCC1` [3-{[3-(cyclopentyloxy)-4-methoxyphenyl]methyl}-8-{2-[(2-fluorophenyl)methoxy]propan-2-yl}-3H-purin-6-amine], for which the figures for the inhibitory constant (Ki) in test [1] and in test [2] were 271 nM and 18.9 nM, respectively.

Take `COc1ccc(Cn2cnc(N)c3nc(C(C)(C)OCc4ccc(Cl)c(Cl)c4)nc2-3)cc1OC1CCCC1` [3-{[3-(cyclopentyloxy)-4-methoxyphenyl]methyl}-8-{2-[(3,4-dichlorophenyl)methoxy]propan-2-yl}-3H-purin-6-amine]: the Ki is 166 nM in test [1] and 9.7 nM in test [2].

With `COc1cccc(COC(C)(C)c2nc3c(N)ncn(Cc4ccc(OC)c(OC5CCCC5)c4)c-3n2)c1` [3-{[3-(cyclopentyloxy)-4-methoxyphenyl]methyl}-8-{2-[(3-methoxyphenyl)methoxy]propan-2-yl}-3H-purin-6-amine], the Ki in test [1] worked out at 175 nM; in test [2], 13 nM.

As to `COc1ccc(COC(C)(C)c2nc3c(N)ncn(Cc4ccc(OC)c(OC5CCCC5)c4)c-3n2)cc1` [3-{[3-(cyclopentyloxy)-4-methoxyphenyl]methyl}-8-{2-[(4-methoxyphenyl)methoxy]propan-2-yl}-3H-purin-6-amine], the values for the Ki in test [1] and in test [2] were 113 nM and 10.3 nM, respectively.

For the molecule `COc1ccc(Cn2cnc(N)c3nc(C(C)OCc4ccccc4)nc2-3)cc1OC1CCCC1` (stereo not given) [8-[1-(benzyloxy)ethyl]-3-{[3-(cyclopentyloxy)-4-methoxyphenyl]methyl}-3H-purin-6-amine], the Ki in test [3] was 4450 nM and 640 nM and 590 nM; in test [1] it was 15200 nM; in test [2], 533 nM.

With `COc1ccc(Cn2cnc(N)c3nc(C(C)(C)OCc4ccccc4)nc2-3)cc1OC1CCCC1` [8-[2-(benzyloxy)propan-2-yl]-3-{[3-(cyclopentyloxy)-4-methoxyphenyl]methyl}-3H-purin-6-amine hydrochloride], the Ki in test [1] amounted to 179 nM; in test [2] it was 8.9 nM.

Regarding `COc1ccc(Cn2cnc(N)c3nc(C(C)(C)OCc4ccc(Cl)cc4)nc2-3)cc1OC1CCCC1` [8-{1-[(4-Chlorobenzyl)oxy]-1-methyl-ethyl}-3-[3-cyclopentyloxy)-4-methoxybenzyl]-3H-purin-6-amine], the Ki in test [1] came to 126 nM; in test [2] it was 11 nM.

Regarding `COc1cc(COC(C)(C)c2nc3c(N)ncn(Cc4ccc(OC)c(OC5CCCC5)c4)c-3n2)cc(OC)c1` [(2E)-but-2-enedioic acid; 3-{[3-(cyclopentyloxy)-4-methoxyphenyl]methyl}-8-{2-[(3,5-dimethoxyphenyl)methoxy]propan-2-yl}-3H-purin-6-amine], the results for the Ki in test [1] and in test [2] were 225 nM and 21.9 nM, respectively.

Values taken from BindingDB's records for doi:10.1021/jm030603w (Purdue Pharma, 2005).
